One assay relates to HEK293. Kind of assay: cells. It is filed as functional. The following applies: Homo sapiens, ATCC CRL1573, HEK293; ASSAY_TEST Inhibition of Cell Viability; detection method Resazurin; Fluorescence (ex560/em590); MEDIA DMEM with 10% FBS; plate type 384well; TC; CORNING #3712; time 18 hr. Background: Alamar Blue is a resazurin reagent that responds to reducing activity.
The next assay concerns Staphylococcus aureus. Kind of assay: microbe, parasite or virus in culture. Particulars: ATCC 43300, 18 h, ASSAY_TEST Inhibition of Bacterial Growth, detection method Absorption (OD600), MEDIA CAMHB, plate type 384well, NBS, CORNING #3640.
In a further assay the test system is Escherichia coli. As to the kind of experiment: microbe, parasite or virus in culture. Particulars: ATCC 25922, 18 h, ASSAY_TEST Inhibition of Bacterial Growth, detection method Absorption (OD600), MEDIA CAMHB, plate type 384well, NBS, CORNING #3640.
For another assay, the system named is Klebsiella pneumoniae. Kind of assay: microbe, parasite or virus in culture. Particulars: ATCC 700603, 18 h, ASSAY_TEST Inhibition of Bacterial Growth, detection method Absorption (OD600), MEDIA CAMHB, plate type 384well, NBS, CORNING #3640.
The next assay deals with Pseudomonas aeruginosa. Kind of assay: microbe, parasite or virus in culture. The following applies: ATCC 27853, 18 h, ASSAY_TEST Inhibition of Bacterial Growth, detection method Absorption (OD600), MEDIA CAMHB, plate type 384well, NBS, CORNING #3640.
The test system of the next assay is Acinetobacter baumannii. As to the kind of experiment: microbe, parasite or virus in culture. The following applies: ATCC 19606, 18 h, ASSAY_TEST Inhibition of Bacterial Growth, detection method Absorption (OD600), MEDIA CAMHB, plate type 384well, NBS, CORNING #3640.
A further assay has as its system Candida albicans. As to the kind of experiment: microbe, parasite or virus in culture. The following applies: ATCC 90028, ASSAY_TEST Inhibition of Fungal Growth, detection method Absorption (OD530), plate type 384well, NBS, CORNING #3640.

≈ marks a conversion by molar mass, not a printed value. Structures can show the parent of a compound that is named as a salt.

Description for Acinetobacter baumannii: Antibacterial activity against Acinetobacter baumannii ATCC 19606 (CO-ADD:GN_034); MIC in CAMBH media using NBS plates, by OD600
Description for Candida albicans: Antifungal activity against Candida albicans ATCC 90028 (CO-ADD:FG_001); MIC in YNB media using NBS plates, by OD630
Description for Cryptococcus neoformans: Antifungal activity against Cryptococcus neoformans H99 ATCC 208821 (CO-ADD:FG_002); MIC in YNB media using NBS plates, by Resazurin OD(600-570)
Description for Escherichia coli: Antibacterial activity against Escherichia coli ATCC 25922 (CO-ADD:GN_001); MIC in CAMBH media using NBS plates, by OD(600)
Description for Klebsiella pneumoniae: Antibacterial activity against Klebsiella pneumoniae MDR ATCC 70063 (CO-ADD:GN_003); MIC in CAMBH media using NBS plates, by OD(600)
Description for Pseudomonas aeruginosa: Antibacterial activity against Pseudomonas aeruginosa ATCC 27853 (CO-ADD:GN_042); MIC in CAMBH media using NBS plates, by OD(600)
Description for Staphylococcus aureus: Antibacterial activity against Staphylococcus aureus MRSA ATCC 43300 (CO-ADD:GP_020); MIC in CAMBH media, using NBS plates, by OD(600)

As a reminder, the CC50 is the concentration at which the toxic effect on the cells reaches its halfway point. Take `CN(C)[C@@H]1C(O)=C(C(N)=O)C(=O)[C@@]2(O)C(O)=C3C(=O)c4c(O)ccc(Cl)c4[C@@](C)(O)[C@H]3C[C@@H]12` [CHLORTETRACYCLINE HYDROCHLORIDE]: the CC50 with HEK293 is > 10000 nM. For the same compound, the MIC against Cryptococcus neoformans is > 10 µM; in the assay with Staphylococcus aureus, 1.25 µM; in the assay on Escherichia coli it was 5 µM; in the assay with Klebsiella pneumoniae, > 10 µM; against Pseudomonas aeruginosa it was 2.5 µM; in the assay on Acinetobacter baumannii, > 10 µM. The MIC against Candida albicans was > 10 µM.

With `Cc1c2ccncc2c(C)c2c1[nH]c1ccccc12` [ELLIPTECINE], the CC50 in the assay with HEK293 was determined as 1130 nM. Moreover, the MIC was 10 µM (≈ 2.46 µg/mL) with Cryptococcus neoformans; 10 µM (≈ 2.46 µg/mL) in the assay on Staphylococcus aureus; > 10 µM against Escherichia coli; > 10 µM in the assay with Klebsiella pneumoniae; > 10 µM with Pseudomonas aeruginosa; > 10 µM against Acinetobacter baumannii. Further, the MIC against Candida albicans is > 10 µM.

In the case of `CC1=C2C(=CC(C)(C)[C@@H]2O)C(=O)[C@](C)(O)C12CC2` [ILLUDIN M], the CC50 in the assay with HEK293 came to 114 nM. Also, the MIC with Cryptococcus neoformans, in the assay on Staphylococcus aureus, with Escherichia coli, against Klebsiella pneumoniae, in the assay with Pseudomonas aeruginosa and against Acinetobacter baumannii was > 10 µM in each case. The MIC against Candida albicans is > 10 µM.

Consider `CC1(C)CCC2=C(O1)c1ccccc1C(=O)C2=O` [LAPACHONE], for which the CC50 in the assay with HEK293 is > 10000 nM. The MIC against Cryptococcus neoformans, against Staphylococcus aureus, against Escherichia coli, with Klebsiella pneumoniae, in the assay on Pseudomonas aeruginosa and against Acinetobacter baumannii was > 10 µM in each case. Further, the MIC in the assay on Candida albicans was > 10 µM.

Turning to `COc1cc2cc(c1Cl)N(C)C(=O)C[C@H](OC(=O)[C@H](C)N(C)C(C)=O)[C@]1(C)O[C@H]1[C@H](C)[C@@H]1C[C@@](O)(NC(=O)O1)[C@H](OC)/C=C/C=C(\C)C2` [MAYTANSINE], the CC50 with HEK293 was > 10000 nM. Further, the MIC in the assay on Cryptococcus neoformans was 0.625 µM (≈ 0.433 µg/mL); with Staphylococcus aureus, > 10 µM; against Escherichia coli, > 10 µM; with Klebsiella pneumoniae, > 10 µM; against Pseudomonas aeruginosa it was > 10 µM; in the assay on Acinetobacter baumannii, > 10 µM. Also, in the assay on Candida albicans, the MIC was > 10 µM.

As to `CC1OC(CC(=O)O)CC2=C1C(=O)c1c(O)cccc1C2=O` (stereo not given) [NANAOMYCIN], half-maximal cytotoxicity with HEK293 (CC50) was put at 188 nM. Moreover, the MIC against Cryptococcus neoformans was 1.25 µM (≈ 0.378 µg/mL); against Staphylococcus aureus, 0.312 µM (≈ 0.0945 µg/mL); in the assay on Escherichia coli it was > 10 µM; against Klebsiella pneumoniae, > 10 µM; with Pseudomonas aeruginosa, > 10 µM; against Acinetobacter baumannii it was > 10 µM. The MIC in the assay with Candida albicans stood at 0.625 µM (≈ 0.189 µg/mL).

`C=C(C)[C@H]1Cc2c(ccc3c2O[C@@H]2COc4cc(OC)c(OC)cc4[C@@H]2C3=O)O1` [ROTENONE]: the CC50 with HEK293 is > 10000 nM. Besides, the MIC was 10 µM (≈ 3.94 µg/mL) in the assay with Cryptococcus neoformans; > 10 µM against Staphylococcus aureus; > 10 µM in the assay on Escherichia coli; > 10 µM against Klebsiella pneumoniae; > 10 µM against Pseudomonas aeruginosa; > 10 µM in the assay on Acinetobacter baumannii. Further, the MIC in the assay on Candida albicans is > 10 µM.

As for `CO[C@H]1C[C@@H]2CC[C@@H](C)[C@@](O)(O2)C(=O)C(=O)N2CCCC[C@H]2C(=O)O[C@H]([C@H](C)C[C@@H]2CC[C@@H](O)[C@H](OC)C2)CC(=O)[C@H](C)/C=C(\C)[C@@H](O)[C@@H](OC)C(=O)[C@H](C)C[C@H](C)/C=C/C=C/C=C/1C` [SIROLIMUS], the CC50 with HEK293 was > 10000 nM. Also, the MIC was 0.156 µM (≈ 0.143 µg/mL) in the assay with Cryptococcus neoformans; > 10 µM against Staphylococcus aureus; > 10 µM in the assay on Escherichia coli; > 10 µM in the assay with Klebsiella pneumoniae; > 10 µM in the assay with Pseudomonas aeruginosa; > 10 µM against Acinetobacter baumannii. Besides, the MIC with Candida albicans was ≤ 0.0781 µM.

As for `COC1=C(N)C(=O)c2nc(-c3nc(C(=O)O)c(C)c(-c4ccc(OC)c(OC)c4O)c3N)ccc2C1=O` [STREPTONIGRIN], it took 115 nM to reach half-maximal cytotoxicity in the assay with HEK293 (CC50). In addition, the MIC in the assay on Cryptococcus neoformans is 1.25 µM (≈ 0.633 µg/mL); against Staphylococcus aureus it was ≤ 0.0781 µM; in the assay on Escherichia coli, 5 µM (≈ 2.53 µg/mL); against Klebsiella pneumoniae, > 10 µM; in the assay on Pseudomonas aeruginosa, 10 µM (≈ 5.06 µg/mL); with Acinetobacter baumannii, > 10 µM. Also, the MIC in the assay with Candida albicans was 0.156 µM (≈ 0.0792 µg/mL).

In the assay on HEK293, `COC[C@H]1OC(=O)c2coc3c2[C@@]1(C)C1=C(C3=O)[C@@H]2CCC(=O)[C@@]2(C)C[C@H]1OC(C)=O` [WORTMANNIN] returned a CC50 of 7830 nM. For the same compound, the MIC with Cryptococcus neoformans is 5 µM (≈ 2.14 µg/mL); in the assay with Staphylococcus aureus, > 10 µM; against Escherichia coli, > 10 µM; against Klebsiella pneumoniae, > 10 µM; against Pseudomonas aeruginosa it was > 10 µM; against Acinetobacter baumannii it was > 10 µM. The compound also showed an MIC in the assay with Candida albicans of 0.625 µM (≈ 0.268 µg/mL).
